Measured values taken from patent US7482321B2, “Extended glucagon-like peptide-1 analogs” (Eli Lilly and Company, priority 2002, dated 2009).
Several values for one entry are separate records, joined by “and”; a condition that tells them apart may be missing. Equal entries are not always repeated. Where two headings read alike, the source gives them in different places. Marks after values point to notes of the source that are not given here. Ends that are not written are not given here.

Legend:
[1] = Pharmacokinetics after single intravenous dose in rats; settings: single i.v. 10 μg/kg; for level at 5 min / level at 0.25 h / level at 0.5 h / level at 1 h / level at 2 h: Sprague Dawley, plasma, Plasma Concentration; for level at 1 h: 60 min; for AUC0-last / Cl / Cmax / Vss / t½ / AUC(0-t) / clearance / Vd / half-life: Sprague Dawley rats; for AUC(0-t): AUC0-last; for clearance: Cl; for Vd: Vss; for half-life: t½
Protocol: (§1) Pharmacokinetic parameters were determined for the following 5 different extended GLP-1 peptides:
(§2) Parameters were determined following a single intravenous dose of 10 μg/kg in four different rats.

[2] = Dog hyperglycemic clamp study, GLP-1 peptide concentration; parameters: species or system dogs; settings: in vivo, iv
Protocol: Several different extended and non-extended GLP-1 peptides were tested for activity in a hyperglycemic clamp study in dogs. Glucose was infused for 200 minutes to maintain constant levels. For the first 80 minutes dogs were infused intravenously with vehicle to establish a baseline insulin concentration. For the next 60 minutes, GLP-1 peptides were administered at a rate of 1 pmol/kg/min. For the final 60 minutes the infusion rate of each GLP-1 compound was increased to 3 pmol/kg/min. Blood samples were taken periodically for the determination of insulin and GLP-1 peptide concentrations. Insulin change values were calculated as the difference between the value at time t and the average value during the last 20 minutes of the control period (60-80) minutes and are presented in Table 3. Areas under the insulin change curves were calculated using the trapezoidal rule over the last 30 minutes of each infusion period. Values listed are the means±standard error of the mean (SEM).

[3] = rat, in vivo, iv, 10 ug/kg
Protocol: as §1, §2

in vivo = settings: Sprague Dawley, rat, iv, 10 ug/kg, Plasma Concentration
Protocol: as §1, §2

[4] = rat, iv, 10 ug/kg, 5 min, Mean of 4 rats
[5] = rat, iv, 10 ug/kg, 5 min, individual rats
[6] = rat, iv, 10 ug/kg, 15 min, Mean of 4 rats
[7] = rat, iv, 10 ug/kg, 15 min, individual rats
[8] = rat, iv, 10 ug/kg, 30 min, Mean of 4 rats
[9] = rat, iv, 10 ug/kg, 30 min, individual rats
[10] = rat, iv, 10 ug/kg, Mean of 4 rats (values below LLOQ taken as zero)
[11] = rat, iv, 10 ug/kg, individual rats
[12] = rat, iv, 10 ug/kg, 120 min, individual rats
[13] = rat, in vivo, iv, 10 ug/kg, Mean of 4 rats
[14] = rat, in vivo, iv, 10 ug/kg, individual rats
[15] = rat, in vivo, iv, 10 ug/kg, Cmax, Mean of 4 rats
[16] = rat, in vivo, iv, 10 ug/kg, Cmax, individual rats
[17] = infusion rate 1 pmol/kg/min i.v., dog hyperglycemic clamp, after 60 minutes of infusion, mean ± SEM, read-out: Compound Concentration (t = 60′)
[18] = infusion rate 3 pmol/kg/min i.v., dog hyperglycemic clamp, after 60 minutes of infusion, mean ± SEM, read-out: Compound Concentration (t = 60′)

Compound: CC[C@H](C)[C@H](NC(=O)[C@H](Cc1ccccc1)NC(=O)[C@H](CCC(=O)O)NC(=O)[C@H](CCCCN)NC(=O)[C@H](C)NC(=O)[C@H](C)NC(=O)[C@H](CCC(N)=O)NC(=O)CNC(=O)[C@H](CCC(=O)O)NC(=O)[C@H](CC(C)C)NC(=O)[C@H](Cc1ccc(O)cc1)NC(=O)[C@H](CO)NC(=O)[C@H](CO)NC(=O)[C@@H](NC(=O)[C@H](CC(=O)O)NC(=O)[C@H](CO)NC(=O)[C@@H](NC(=O)[C@H](Cc1ccccc1)NC(=O)[C@@H](NC(=O)CNC(=O)[C@H](CCC(=O)O)NC(=O)[C@@H](NC(=O)[C@@H](N)Cc1c[nH]cn1)C(C)C)[C@@H](C)O)[C@@H](C)O)C(C)C)C(=O)N[C@@H](C)C(=O)N[C@@H](Cc1c[nH]c2ccccc12)C(=O)N[C@@H](CC(C)C)C(=O)N[C@H](C(=O)N[C@@H](CCCCN)C(=O)NCC(=O)N[C@@H](CCCNC(=N)N)C(=O)NCC(=O)N[C@@H](CO)C(=O)N[C@@H](CO)C(=O)NCC(=O)N[C@@H](C)C(=O)N1CCC[C@H]1C(=O)N1CCC[C@H]1C(=O)N1CCC[C@H]1C(=O)N[C@@H](CO)C(=O)O)C(C)C [Compound 4]
- Plasma Concentration ([1]; 5 min, individual rats): 24853 pg/mL
- Plasma Concentration ([1]; 120 min, individual rats): <150 ^a pg/mL
- level at 5 min [1, 4]: 23.6 ng/mL
- level at 5 min [1, 5]: 25.4 ng/mL
- level at 0.25 h [1, 6]: 9.86 ng/mL
- level at 0.25 h [1, 7]: 12.1 ng/mL
- level at 0.5 h [1, 8]: 3.18 ng/mL
- level at 0.5 h [1, 9]: 4.37 ng/mL
- level at 1 h [1, 10]: 0.636 ng/mL
- level at 1 h [1, 11]: 0.869 ng/mL
- level at 2 h [1, 12]: < 0.15 ng/mL
- AUC0-last ([1]; individual rats): 486.7 ng·min/mL and 424.9 ng·min/mL and 461.5 ng·min/mL
- Cl ([1]; individual rats): 20.5 mL/min/kg and 23.5 mL/min/kg and 21.7 mL/min/kg
- Cmax ([1]; individual rats): 24.9 ng/mL and 20.0 ng/mL and 24.0 ng/mL
- Vss ([1]; individual rats): 0.2511 L/kg and 0.3159 L/kg and 0.2492 L/kg
- t½ ([1]; individual rats): 11.9 min and 11.2 min and 11.0 min
- AUC(0-t) [1, 13]: 8.05 ng·h/mL
- AUC(0-t) [1, 14]: 9.33 ng·h/mL
- clearance [1, 13]: 20.9 mL/min/kg
- clearance [1, 14]: 17.9 mL/min/kg
- Cmax [1, 15]: 23.6 ng/mL
- Cmax [1, 16]: 25.4 ng/mL
- Vd [1, 13]: 0.269 L/kg
- Vd [1, 14]: 0.259 L/kg
- half-life [1, 13]: 11.5 min
- half-life [1, 14]: 12 min

Compound: HVEGTFTSDVSSYLEEQAAKEFIAWLIKGGPSSGAPPPS [SEQ ID NO:55]
- level at time molar at 1 h ([2]; dog, 1 pmol/kg/min): 0.246 ± 0.017 nM
- level at time molar at 1 h ([2]; dog, 3 pmol/kg/min): 0.766 ± 0.046 nM

Compound: HVEGTFTSDVSSYLEEQAAKEFIAWLIKGGPSSGDPPPS [Compound 2]
- level at time molar at 1 h [2, 17]: 0.204 ± 0.024 nM
- level at time molar at 1 h [2, 18]: 0.755 ± 0.072 nM
- Plasma Concentration ([1]; 120 min, individual rats): <150 ^a pg/mL
- level at 5 min [1, 4]: 17.3 ng/mL
- level at 0.25 h [1, 6]: 6.82 ng/mL
- level at 0.5 h [1, 8]: 2.95 ng/mL
- level at 1 h [1, 10]: 1.05 ng/mL
- AUC0-last ([1]; individual rats): 312.2 ng·min/mL and 430.0 ng·min/mL and 409.1 ng·min/mL
- Cl ([1]; individual rats): 32.0 mL/min/kg and 23.3 mL/min/kg and 24.4 mL/min/kg
- Cmax ([1]; individual rats): 9.8 ng/mL and 16.9 ng/mL and 21.4 ng/mL and 21.1 ng/mL
- Vss ([1]; individual rats): 0.9739 L/kg and 0.3557 L/kg and 0.2833 L/kg and 0.3134 L/kg
- t½ ([1]; individual rats): 35.8 min and 12.3 min and 10.6 min and 14.4 min
- AUC(0-t) [1, 13]: 6.93 ng·h/mL
- AUC(0-t) [1, 14]: 8.55 ng·h/mL
- clearance [1, 13]: 24.8 mL/min/kg
- clearance [1, 14]: 19.5 mL/min/kg
- Cmax [1, 15]: 17.3 ng/mL
- Vd [1, 13]: 0.482 L/kg
- half-life [1, 13]: 18.3 min

Compound: HVEGTFTSDVSSYLEEQAAKEFIAWLIKGGPSSGDPPPS-NH2 [Compound 1]
- level at time molar at 1 h [2, 17]: 0.268 ± 0.045 nM
- level at time molar at 1 h [2, 18]: 0.977 ± 0.135 nM
- Plasma Concentration ([1]; 30 min, individual rats): 3119 pg/mL
- Plasma Concentration ([1]; 120 min, individual rats): <150 ^a pg/mL
- level at 5 min [1, 4]: 23.5 ng/mL
- level at 5 min [1, 5]: 24.6 ng/mL
- level at 0.25 h [1, 6]: 9.61 ng/mL
- level at 0.25 h [1, 7]: 10 ng/mL
- level at 0.5 h [1, 8]: 3.1 ng/mL
- level at 0.5 h [1, 9]: 3.12 ng/mL
- level at 1 h [1, 10]: 0.554 ng/mL
- level at 2 h [1, 12]: < 0.15 ng/mL
- AUC0-last ([1]; individual rats): 478.8 ng·min/mL and 448.5 ng·min/mL and 469.4 ng·min/mL
- Cl ([1]; individual rats): 20.9 mL/min/kg and 22.3 mL/min/kg and 21.3 mL/min/kg
- Cmax ([1]; individual rats): 24.1 ng/mL and 22.8 ng/mL and 22.4 ng/mL
- Vss ([1]; individual rats): 0.2463 L/kg and 0.2657 L/kg and 0.2704 L/kg
- t½ ([1]; individual rats): 10.1 min and 10.9 min
- AUC(0-t) [1, 13]: 7.92 ng·h/mL
- AUC(0-t) [1, 14]: 8.41 ng·h/mL
- clearance [1, 13]: 21.1 mL/min/kg
- clearance [1, 14]: 19.8 mL/min/kg
- Cmax [1, 15]: 23.5 ng/mL
- Cmax [1, 16]: 24.6 ng/mL
- Vd [1, 13]: 0.264 L/kg
- Vd [1, 14]: 0.273 L/kg
- half-life [1, 13]: 11 min
- half-life [1, 14]: 13.1 min

Compound: HVEGTFTSDVSSYLEEQAAKEFIAWLVKGRGSSGAPPPS [Compound 3]
- Plasma Concentration ([1]; 15 min, individual rats): 8467 pg/mL
- Plasma Concentration ([1]; 120 min, individual rats): <150 ^a pg/mL
- level at 5 min [1, 4]: 23.2 ng/mL
- level at 5 min [1, 5]: 23.6 ng/mL
- level at 0.25 h [1, 6]: 8.81 ng/mL
- level at 0.25 h [1, 7]: 8.6 ng/mL
- level at 0.5 h [1, 8]: 3.44 ng/mL
- level at 0.5 h [1, 9]: 3 ng/mL
- level at 1 h [1, 10]: 0.657 ng/mL
- level at 1 h [1, 11]: 0.566 ng/mL
- level at 2 h [1, 12]: < 0.15 ng/mL
- AUC0-last ([1]; individual rats): 465.6 ng·min/mL and 492.5 ng·min/mL and 409.1 ng·min/mL
- Cl ([1]; individual rats): 21.5 mL/min/kg and 20.3 mL/min/kg and 24.4 mL/min/kg
- Cmax ([1]; individual rats): 22.7 ng/mL and 24.3 ng/mL and 21.1 ng/mL
- Vss ([1]; individual rats): 0.2805 L/kg and 0.2624 L/kg and 0.3134 L/kg
- t½ ([1]; individual rats): 11.7 min and 12.0 min and 14.4 min
- AUC(0-t) [1, 13]: 7.96 ng·h/mL
- AUC(0-t) [1, 14]: 7.78 ng·h/mL
- clearance [1, 13]: 21 mL/min/kg
- clearance [1, 14]: 21.4 mL/min/kg
- Cmax [1, 15]: 23.3 ng/mL
- Cmax [1, 16]: 23.6 ng/mL
- Vd [1, 13]: 0.277 L/kg
- Vd [1, 14]: 0.263 L/kg
- half-life [1, 13]: 12.1 min
- half-life [1, 14]: 11.6 min

Compound: HVEGTFTSDVSSYLEEQAVKEFIAWLIKGGPSSGAPPPRG [SEQ ID NO:48]
- level at time molar at 1 h ([2]; dog, 1 pmol/kg/min): 0.227 ± 0.04 nM
- level at time molar at 1 h ([2]; dog, 3 pmol/kg/min): 1.09 ± 0.106 nM

Compound: HVEGTFTSDVSSYLEEQAVKEFIAWLIKGGPSSGAPPPS [SEQ ID NO:42]
- level at time molar at 1 h ([2]; dog, 1 pmol/kg/min): 0.276 ± 0.036 nM
- level at time molar at 1 h ([2]; dog, 3 pmol/kg/min): 1.11 ± 0.139 nM

Compound: HVEGTFTSDVSSYLEEQAVKEFIAWLIKGGPSSGAPPPS-NH2 [SEQ ID NO:13]
- level at time molar at 1 h ([2]; dog, 1 pmol/kg/min): 0.366 ± 0.059 nM
- level at time molar at 1 h ([2]; dog, 3 pmol/kg/min): 1.32 ± 0.211 nM

Compound: HVEGTFTSDVSSYLEEQAVKEFIAWLIKGGPSSGAPPPSH [SEQ ID NO:43]
- level at time molar at 1 h ([2]; dog, 1 pmol/kg/min): 0.306 ± 0.02 nM
- level at time molar at 1 h ([2]; dog, 3 pmol/kg/min): 1.06 ± 0.034 nM

Compound: HVEGTFTSDVSSYLEEQAVKEFIAWLIKGRGSSGAPPPS [SEQ ID NO:35]
- level at time molar at 1 h ([2]; dog, 1 pmol/kg/min): 0.267 ± 0.031 nM
- level at time molar at 1 h ([2]; dog, 3 pmol/kg/min): 1.04 ± 0.103 nM

Compound: HVEGTFTSDWSSYLEEQAAKEFIAWLIKGRGSSGAPPPS [Compound 5]
- AUC(0-t) ([3]; AUC0-last): 12.5 ng·h/mL
- clearance ([3]; Cl): 13.4 mL/min/kg
- Cmax ([3]; Cmax): 35.9 ng/mL
- Vd ([3]; Vss): 0.179 L/kg
- half-life ([3]; t½): 11.9 min
- level at 5 min (in vivo): 35.9 ng/mL
- level at 0.25 h (in vivo): 16.1 ng/mL
- level at 2 h (in vivo): < 0.15 ng/mL
